According to patent publication US9862748B2, “Peptide compounds and methods of production and use thereof” (priority 2012, dated 2018):
Square brackets hold non-standard residues; d marks the D form. Peptide text beside a SMILES is read from it. AEEA = NCCOCCOCC(=O)O

Columns and labels:
[1] = test system: Acinetobacter baumannii ATCC® BAA-747™; format: cell-based; conditions: starting inoculum 1×10^6 CFU/ml; 60 to 180 minute incubation
Description: (§1) In vitro bactericidal activity: The three peptide compounds BCC01-5RMP (SEQ ID NO: 21), BCC02-5RMP (SEQ ID NO: 22), and BCC03-5RMP (SEQ ID NO: 23) were assayed for in vitro bactericidal activity against Pseudomonas aeruginosa, Escherichia coli, Salmonella typhimurium, and Acinetobacter baumannii. The starting inoculum for all experiments was 1×10^6 colony forming units (CFU)/ml. The CFU remaining at the end of 60 to 180 minute incubation was determined, and the data plotted as a log reduction in CFU/ml.
For FIGS. 10-13, in vitro bactericidal assays were performed using a starting inoculum of 1×10^6 CFU/ml of the bacterial suspension. The CFU remaining at the end of the 60-180 minute incubation was determined, and the data was plotted as log reduction in CFU/ml.
In particular, each of the test peptides (CAP37 peptides 120-146WR, 120-146WH, and 95-122 (SEQ ID NOs: 30, 31, and 26, respectively)) was used at 25, 12.5, 6.25, and 3.12 μM. Gentamicin was used at 4 μg/ml. 1×10^6/ml Acinetobacter baumannii ATCC® BAA-747™ or Pseudomonas aeruginosa ATCC® 27853™ (American Type Culture Collection, Manassas, Va.) were incubated with the peptides, negative buffer control (tryptone saline), and positive control gentamicin at pH 5.5 or 7.2. A 60 minute incubation was used for Acinetobacter baumannii ATCC® BAA-747™, while a 180 minute incubation was used for Pseudomonas aeruginosa ATCC® 27853™. 50 μl aliquots were plated out on agar plates and incubated overnight. Colony forming units were counted after overnight incubation and CFU/ml calculated.

[2] = test system: Salmonella typhimurium; test: In vitro bactericidal assay; format: cell-based
Description: as §1

[3] = test system: Pseudomonas LPS; test: LPS binding, Limulus Amebocyte Lysate (LAL) assay
Description: (§2) The well-characterized response of RAW264.7 macrophage cells was used to produce tumor necrosis-factor-alpha (TNF-α) in response to LPS to determine whether the peptides could dampen the release of this cytokine. […] Importantly, pre-treatment (3 hours prior to LPS addition) as well as post-treatment of the RAW264.7 cells (3 hours post LPS addition) with peptide dampened the cytokine release. […] The finding that the novel peptides bind and neutralize the effect of Pseudomonas LPS is of critical importance since this ensures that the novel therapeutic peptide compounds described herein will not only kill the bacteria, but will also neutralize the LPS endotoxin released by the bacteria which plays such an important role in the rapid progression of sepsis.
(§3) BCC01-5RMP (SEQ ID NO: 21), BCC02-5RMP (SEQ ID NO: 22), and BCC03-5RMP (SEQ ID NO: 23) were tested for their ability to bind lipopolysaccharide (LPS) using the limulus amebocyte lysate method (LAL). […] There was no statistical difference in their ability to bind LPS using the LAL technique. The ability of the peptides to neutralize LPS was assessed by determining their ability to attenuate the release of tumor necrosis factor-alpha (TNF-α) from LPS-stimulated RAW264.7 cells (a mouse macrophage cell line). […] No significant differences were observed between the three peptides to neutralize LPS as measured by cytokine release.

[4] = test system: RAW264.7 cells; test: LPS neutralization: TNF-α release from LPS-stimulated RAW264.7 cells; format: cell-based, mouse
Description: as §2, §3

[5] = test system: Pseudomonas clinical isolate B64; test: BIOSCREEN C growth assay / MIC, antibiotic in combination with peptide; format: cell-based, P. aeruginosa
Description: The peptide and antibiotics were set up in the wells of the microtiter plate at starting ratios of MIC equivalents of antibiotic:peptide at 3:1, 1:1, and 1:3. They were serially diluted to concentrations well below suboptimal/sublethal levels of the antibiotic and peptide. The organism was added (1×10^5 CFU/well), the BIOSCREEN C™ assay (Growth Systems USA, Piscataway, N.J.) was performed, and data was collected over 24 hours.

[6] = test system: human corneal epithelial cell (HCEC); test: HCEC chemotaxis, modified Boyden chemotaxis chamber assay; format: cell-based; conditions: 120-146QH 10^−4 to 10^−10 M; 120-146QR 10^−6 and 10^−8 M; HB-EGF 50 ng/ml; rCAP37 250 ng/ml; 3 hours
Description: The effect of buffer control (0.1% BSA in Gey's buffer), heparin binding-epidermal growth factor (HB-EGF, 50 ng/ml), recombinant CAP37 (rCAP37, 250 ng/ml), 120-146QH ([…], 10^−10M, 10^−8M, 10^−4M, and 10^−4M,) and 120-146QR (10^−10M, 10^−8M, 10^−6M, and 10^−4M) on HCEC chemotaxis was determined by the modified Boyden chemotaxis chamber method. HCEC chemotaxis was measured in response to HB-EGF, rCAP37, and peptides 120-146QH (SEQ ID NO: 29) and 120-146QR (SEQ ID NO: 28) after incubation for 3 hours at 37° C. Chemotaxis is expressed as a percent migration. The buffer control (no chemoattractant) is arbitrarily assigned the value of 100% migration. Data are expressed as means±SEM and are calculated from 6 observations for each test point. **P<0.01 by Wilcoxon signed-rank test as compared to controls.
Chemotaxis assays were performed using the modified Boyden chemotaxis chamber assay. Peptide 120-146QH was used at 10^−4M, 10^−6M, 10^−8 M, 10^−10 M, and 10^−12M, and peptide 120-146QR was used at 10^−4M, 10^−6M, 10^−8 M, and 10^−10 M.

[7] = test system: mouse cornea (corneal epithelial abrasion); test: In vivo model of corneal wound healing
Description: The in vivo model of wound healing was carried out using a disposable biopsy punch (2 mm, Miltex, York, Pa.) to demarcate the mouse cornea and a 0.5 mm burr using the AlgerBrush II (The Alger Company, Inc., Lago Vista, Tex.) to remove the corneal epithelium.
Mice were anesthetized using ketamine (100 mg/kg; Bionichepharma, LLC., St. Lake Forrest, Ill.) and xylazine ([…]; Rompun; Bayer Corp., Shawnee Mission, Kans.), and the right cornea was wounded as follows. A disposable biopsy punch (2 mm, Miltex, York, Pa.) was used to demarcate the mouse cornea. The corneal epithelium was carefully removed within the 2 mm demarcated area with a 0.5 mm burr using the AlgerBrush II (The Alger Company, Inc., Lago Vista, Tex.). The corneal abrasions were treated at 0 and 16 hours with HB-EGF (250 ng/ml), rCAP37 (250 ng/ml), or vehicle control (0.9% sodium chloride, pH 5.5, Baxter, Deerfield, Ill.). Corneal abrasions were visualized using sterile fluorescein sodium ophthalmic strips USP (FLUORETS®, Chauvin Laboratory, Aubenas, France) dampened with sterile PBS. Images were taken at 0, 16, 24, and 48 hours immediately following fluorescein staining using a surgical microscope equipped with a camera (Carl Zeiss OPMI VISU 140, Carl Zeiss Surgical, Inc., Oberkochen, Germany). The areas of the open wound were quantitated using ImageJ software (US National Institutes of Health), and the results were reported as the percentage of wound closure.
Whole mouse eyes were collected for histology at 0, 6, 16, 24, and 48 hours post wounding and were immediately placed in Prefer fixative (Anatech LTD., Battle Creek, Mich.) for 20 minutes before being transferred to 70% ethanol. Tissues were paraffin-embedded and cut at a thickness of 5 μm, mounted on SUPERFROSTPLUS® slides (Statlab Medical Products, Lewisville, Tex.), and subsequently deparaffinized, rehydrated, and washed in deionized water. Sections were stained with hematoxylin (Leica Microsystems, Buffalo Grove, Ill.) and rinsed twice in deionized water before being washed in Blue Buffer (Leica Microsystems). The sections were finally washed in deionized water and 95% ethanol prior to being counterstained with eosin (Leica Microsystems). Sections were dehydrated in ethanol and cleared in xylene.

[8] = test system: HCEC monolayers; test: In vitro scratch assay of wound closure; format: cell-based, human
Description: An in vitro scratch assay was used in order to determine the ability of rCAP37 to facilitate corneal wound healing. Human corneal epithelial cells were cultured as described above until they reached a confluent monolayer. Each monolayer was scratched using a 10 μl pipette tip to create two perpendicular lines. Monolayers were treated with heparin binding-epidermal growth factor (HB-EGF, 250 ng/ml; Becton Dickinson), rCAP37 (25-2000 ng/ml), or basal KSFM (Gibco). Wound closure was monitored at 0, 18, 24, and 48 hours utilizing a camera-equipped inverted microscope (TE2000-E; Nikon, Melville, N.Y.). Time-lapse images of in vitro wound closure were obtained using a camera-equipped inverted microscope (TE2000-E; Nikon) from 0-18 hours. HCEC monolayers were treated with HB-EGF, rCAP37, and basal KSFM as described above. The width of each scratch was quantitated using ImageJ software (US National Institutes of Health, Bethesda, Md.). Results are presented as the percentage of wound closure.

[9] = 250 ng/ml topical at 0 and 16 hours

Row | Molecule | activity against Acinetobacter baumannii [1] | activity against Salmonella typhimurium [2] | binding of Pseudomonas LPS (LAL) [3] | release of TNF-α in response to Pseudomonas LPS [4] | effect of added peptide on sensitivity of the bacterium to Cefotaxime ([5]; 3.04 μg/ml peptide with Cefotaxime 2.81 μg/ml, P=0.0143) | effect of added peptide with Levofloxacin, Fractional area (FA) ([5]; 3.04 μg/ml peptide with Levofloxacin 3.6 μg/ml) | effect of added peptide on killing by Ciprofloxacin ([5]; 4.05 μg/ml peptide with […] Ciprofloxacin, P=0.0003) | effect of added peptide on the killing effect of Cefotaxime ([5]; 0.34 and 1.0 μg/ml peptide with Cefotaxime 2.81 μg/ml) | HCEC migration versus buffer control [6] | re-epithelialization at 24 hours versus vehicle (H&E histology) ([7]; 250 ng/ml) | wound closure at 16 hours [7, 9] [%] | wound closure at 24 hours [7, 9] [%] | percentage wound closure in vitro ([8]; 250 ng/ml, at 18 hours) [%] | percentage wound closure in vitro ([8]; 500 ng/ml)
1 | CC[C@H](C)[C@H](NC(=O)[C@H](CC(C)C)NC(=O)[C@H](C)NC(=O)CNC(=O)CNC(=O)[C@H](CO)NC(=O)[C@H](Cc1ccccc1)NC(=O)[C@H](Cc1c[nH]cn1)NC(=O)[C@H](CCCNC(=N)N)NC(=O)CNC(=O)[C@H](CCC(N)=O)NC(=O)[C@H](CC(N)=O)NC(=O)[C@H](CCCNC(=N)N)NC(=O)[C@H](CCCNC(=N)N)NC(=O)[C@H](CCCNC(=N)N)NC(=O)[C@H](CCCNC(=N)N)NC(=O)COCCOCCNC(=O)COCCOCCN)C(=O)N[C@@H](Cc1c[nH]cn1)C(=O)N[C@@H](C)C(=O)N[C@@H](CCCNC(=N)N)C(=O)N[C@@H](Cc1ccccc1)C(=O)N[C@H](C(=O)N[C@@H](CCSC)C(=O)N[C@H](C(=O)N[C@@H](C)C(=O)N[C@@H](C)C(=O)N[C@@H](CO)C(=O)N[C@@H](CS)C(=O)N[C@@H](Cc1ccccc1)C(=O)N[C@@H](CCC(N)=O)C(=O)N[C@@H](CCCNC(=N)N)C(=O)O)[C@@H](C)O)C(C)C [BCC02-5RMP] (H-[AEEA][AEEA]RRRRNQGRHFSGGALIHARFVMTAASCFQR-OH; N-terminus and C-terminus assumed) | most active | strong, but lesser activity | bound Pseudomonas LPS | attenuate the release of TNF-α | now sensitive | shows significance | significantly affected killing | no statistical effect | – | – | – | – | – | –
2 | CC[C@H](C)[C@H](NC(=O)[C@H](CC(C)C)NC(=O)[C@H](C)NC(=O)CNC(=O)CNC(=O)[C@H](CS)NC(=O)[C@H](Cc1ccccc1)NC(=O)[C@H](Cc1c[nH]cn1)NC(=O)[C@H](CCCNC(=N)N)NC(=O)CNC(=O)[C@H](CCC(N)=O)NC(=O)[C@H](CC(N)=O)NC(=O)[C@H](CCCNC(=N)N)NC(=O)[C@H](CCCNC(=N)N)NC(=O)[C@H](CCCNC(=N)N)NC(=O)[C@H](CCCNC(=N)N)NC(=O)COCCOCCNC(=O)COCCOCCN)C(=O)N[C@@H](Cc1c[nH]cn1)C(=O)N[C@@H](C)C(=O)N[C@@H](CCCNC(=N)N)C(=O)N[C@@H](Cc1ccccc1)C(=O)N[C@H](C(=O)N[C@@H](CCSC)C(=O)N[C@H](C(=O)N[C@@H](C)C(=O)N[C@@H](C)C(=O)N[C@@H](CO)C(=O)N[C@@H](CS)C(=O)N[C@@H](Cc1ccccc1)C(=O)N[C@@H](CCC(N)=O)C(=O)N[C@@H](CCCNC(=N)N)C(=O)O)[C@@H](C)O)C(C)C [BCC01-5RMP] (H-[AEEA][AEEA]RRRRNQGRHFCGGALIHARFVMTAASCFQR-OH; N-terminus and C-terminus assumed) | most active | strong, but lesser activity | bound Pseudomonas LPS | attenuate the release of TNF-α | – | – | – | – | – | – | – | – | – | –
3 | CAP37: cationic antimicrobial protein of Mr 37 kDa; recombinant CAP37 produced in human embryonic kidney (HEK) 293 cells (protein) IVGGRKARPRQFPFLASIQNQGRHFCGGALIHARFVMTAASCFQSQNPGVSTVVLGAYDLRRRERQSRQTFSISSMSENGYDPQQNLNDLMLLQLDREANLTSSVTILPLPLQNATVEAGTRCQVAGWGSQRSGGRLSRFPRFVNVTVTPEDQCRPNNVCTGVLTRRGGICNGDGGTPLVCEGLAHGVASFSLGPCGRGPDFFTRVALFRDWIDGVLNNPGP | – | – | – | – | – | – | – | – | significant increase in migration | greatly accelerated | 71 | 83 | ~71 | approximately 62%
